This passage reports inhibition results from patent US20120270237A9, “METHODS FOR THE IDENTIFICATION OF KINASE INTERACTING MOLECULES AND FOR THE PURIFICATION OF KINASE PROTEINS” (Cellzone AG, priority 2009, published 2012).

Common to all, as to experiment: Kinobeads competition binding, HL60 cell lysate
What all share (design): endogenous in cells
Settings in all cases: 10 μM free compound

One test has as its target PLK1 (Homo sapiens, UniProt P53350). Here is the method:
(§1) To one aliquot of cell lysate 10 μM of the free compound (FIG. 3, CZC31326) was added and allowed to bind to proteins in the lysate. Then the affinity matrix with the immobilized compound (Example 1) was added to capture proteins that were not interacting with the previously added free compound. Beads were separated from the lysate and bead bound proteins were eluted in SDS sample buffer and subsequently separated by SDS-Polyacrylamide gel electrophoresis (FIG. 4). Suitable gel bands were cut out and subjected to in-gel proteolytic digestion with trypsin. The second lysate aliquot was processed identically, however no free compound was added (DMSO solvent control). Peptides originating from samples 1 and 2 were labeled with iTRAQ reagents (iTRAQ 114 and iTRAQ 117) and the combined samples were analyzed with a nano-flow liquid chromatography system coupled online to a tandem mass spectrometer (LC-MS/MS) experiment followed by iTRAQ reporter ion quantification in the MS/MS spectra (Ross et al., 2004. Mol. Cell. Proteomics 3(12):1154-1169). Further experimental protocols can be found in WO2006/134056 and a previous publication (Bantscheff et al., 2007. Nature Biotechnology 25, 1035-1044). Sepharose-beads with the immobilized compound (100 μl beads per pull-down experiment) were equilibrated in lysis buffer and incubated with a cell lysate sample containing 50 mg of protein on an end-over-end shaker (Roto Shake Genie, Scientific Industries Inc.) for 2 hours at 4° C. Beads were collected, transferred to Mobicol-columns (MoBiTech 10055) and washed with 10 ml lysis buffer containing 0.4% NP40 detergent, followed by 5 ml lysis buffer containing 0.2% detergent. To elute bound proteins, 60 μl 2×SDS sample buffer was added to the column. The column was incubated for 30 minutes at 50° C. and the eluate was transferred to a siliconized microfuge tube by centrifugation. Proteins were then alkylated with 108 mM iodoacetamid. Proteins were then separated by SDS-Polyacrylamide electrophoresis (SDS-PAGE). The peptide extracts of samples treated with 10 μM of free compound (CZC31326) and the solvent control (0.5% DMSO) were treated with different variants of the isobaric tagging reagent (iTRAQ Reagents Multiplex Kit, part number 4352135, Applied Biosystems, Foster City, Calif., USA). The iTRAQ reagents are a set of multiplexed, amine-specific, stable isotope reagents that can label peptides on amino groups in up to four different biological samples enabling simultaneous identification and quantitation of peptides. The iTRAQ reagents were used according to instructions provided by the manufacturer. The samples were resuspended in 10 μl 50 mM TEAB solution, pH 8.5 and 10 μl ethanol were added. The iTRAQ reagent was dissolved in 120 μl ethanol and 10 μl of reagent solution were added to the sample. The labeling reaction was performed at room temperature for one hour on a horizontal shaker and stopped by adding 5 μl of 100 mM TEAB and 100 mM glycine in water. The two labeled sampled were then combined, dried in a vacuum centrifuge and resuspended in 10 μl of 0.1% formic acid in water. Relative protein quantitation was performed using peak areas of iTRAQ reporter ion signals essentially as described in an earlier publication (Bantscheff et al., 2007. Nature Biotechnology 25, 1035-1044).

A further test addresses T1, IKKe (Homo sapiens, UniProt Q14164).
T1 sequence (Q14164 1-716): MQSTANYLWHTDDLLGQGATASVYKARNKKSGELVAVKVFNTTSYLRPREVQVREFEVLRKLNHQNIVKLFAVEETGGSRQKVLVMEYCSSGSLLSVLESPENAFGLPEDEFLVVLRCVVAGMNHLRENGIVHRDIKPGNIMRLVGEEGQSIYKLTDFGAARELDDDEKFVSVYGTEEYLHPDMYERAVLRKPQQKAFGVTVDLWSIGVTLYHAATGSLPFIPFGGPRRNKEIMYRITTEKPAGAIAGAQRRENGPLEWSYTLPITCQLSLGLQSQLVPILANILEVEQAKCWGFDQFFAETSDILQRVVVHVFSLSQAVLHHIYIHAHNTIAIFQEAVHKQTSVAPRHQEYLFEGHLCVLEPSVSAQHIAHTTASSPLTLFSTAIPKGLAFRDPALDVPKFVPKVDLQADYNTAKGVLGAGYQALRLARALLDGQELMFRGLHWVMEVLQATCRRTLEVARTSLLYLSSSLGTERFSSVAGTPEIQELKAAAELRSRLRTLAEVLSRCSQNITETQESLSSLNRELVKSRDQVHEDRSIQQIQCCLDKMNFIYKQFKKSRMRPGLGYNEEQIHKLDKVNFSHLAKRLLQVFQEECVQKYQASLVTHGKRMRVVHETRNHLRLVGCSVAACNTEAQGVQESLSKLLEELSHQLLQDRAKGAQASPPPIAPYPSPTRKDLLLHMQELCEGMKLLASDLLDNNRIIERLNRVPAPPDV
The method, then: as §1

Another test addresses T2, PHKg2 (Homo sapiens, UniProt P15735).
T2 sequence (P15735 1-406): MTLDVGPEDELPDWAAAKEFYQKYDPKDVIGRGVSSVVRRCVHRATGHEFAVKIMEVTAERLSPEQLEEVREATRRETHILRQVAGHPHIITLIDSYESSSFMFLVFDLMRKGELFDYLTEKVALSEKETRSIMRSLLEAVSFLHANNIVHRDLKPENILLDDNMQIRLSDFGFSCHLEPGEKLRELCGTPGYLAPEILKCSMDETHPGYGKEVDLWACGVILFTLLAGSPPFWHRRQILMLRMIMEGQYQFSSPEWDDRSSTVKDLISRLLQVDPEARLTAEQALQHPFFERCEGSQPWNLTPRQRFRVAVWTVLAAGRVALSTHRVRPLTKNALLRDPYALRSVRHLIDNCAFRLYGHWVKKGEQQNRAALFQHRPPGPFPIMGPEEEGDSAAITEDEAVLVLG
The method, then:
as §1

The target in another test is PAK4 (Homo sapiens, UniProt O96013). Here is the method: as §1
PAK4, sequence (O96013 whole entry): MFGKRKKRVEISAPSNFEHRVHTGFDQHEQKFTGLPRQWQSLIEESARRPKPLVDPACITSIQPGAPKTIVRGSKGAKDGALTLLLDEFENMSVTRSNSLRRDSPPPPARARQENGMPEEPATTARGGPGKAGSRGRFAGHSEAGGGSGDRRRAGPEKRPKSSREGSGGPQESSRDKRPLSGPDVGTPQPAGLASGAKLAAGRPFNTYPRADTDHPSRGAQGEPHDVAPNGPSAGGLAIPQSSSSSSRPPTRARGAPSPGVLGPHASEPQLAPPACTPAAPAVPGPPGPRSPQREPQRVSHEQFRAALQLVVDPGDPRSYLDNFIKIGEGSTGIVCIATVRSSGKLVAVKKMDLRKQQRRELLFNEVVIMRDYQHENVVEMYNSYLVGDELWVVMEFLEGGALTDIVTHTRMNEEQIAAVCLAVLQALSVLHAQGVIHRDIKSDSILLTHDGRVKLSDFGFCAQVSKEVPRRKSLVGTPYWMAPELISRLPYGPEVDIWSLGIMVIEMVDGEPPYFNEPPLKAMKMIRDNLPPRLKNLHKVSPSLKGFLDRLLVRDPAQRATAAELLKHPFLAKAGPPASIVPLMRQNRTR

PLK1, sequence (P53350 whole entry): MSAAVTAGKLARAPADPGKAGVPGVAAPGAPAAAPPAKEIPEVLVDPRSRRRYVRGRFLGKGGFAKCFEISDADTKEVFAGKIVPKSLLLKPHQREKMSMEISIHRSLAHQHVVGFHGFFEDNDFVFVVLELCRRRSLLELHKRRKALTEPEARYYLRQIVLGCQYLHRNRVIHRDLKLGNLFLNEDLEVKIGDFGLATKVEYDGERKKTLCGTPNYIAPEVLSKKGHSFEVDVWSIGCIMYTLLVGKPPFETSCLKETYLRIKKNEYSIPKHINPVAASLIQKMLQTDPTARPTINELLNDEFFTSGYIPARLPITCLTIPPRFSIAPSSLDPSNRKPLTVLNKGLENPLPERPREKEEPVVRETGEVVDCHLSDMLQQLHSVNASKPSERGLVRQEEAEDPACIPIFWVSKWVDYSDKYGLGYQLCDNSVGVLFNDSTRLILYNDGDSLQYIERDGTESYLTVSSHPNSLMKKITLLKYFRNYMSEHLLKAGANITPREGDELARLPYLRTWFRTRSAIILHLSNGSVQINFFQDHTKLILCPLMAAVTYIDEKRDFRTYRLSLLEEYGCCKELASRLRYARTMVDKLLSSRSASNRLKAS

Regarding `CS(=O)(=O)Nc1ccccc1Nc1nc(Nc2cccc(OCCN)c2)ncc1Cl` [CZC31326, N-(2-(2-(3-(2-aminoethoxy)phenylamino)-5-chloropyrimidin-4-ylamino)phenyl)methanesulfonamide], the inhibition at 10 µM turned out to be 97.8% on PLK1, 91.4% at IKKe, 96.6% on PHKg2 and 97.5% on PAK4.
